Our source for the Normal melting temperature values is the NIST ThermoML archive (doi:10.1021/je200531k).

The conditions of the data set: Crystal; DTA.

Structures are written as SMILES. Numbers after ± are expanded uncertainties.

As to `C=C(C)[C@@H]1CC[C@]2(C(=O)O)CC[C@]3(C)[C@H](CC[C@@H]4[C@@]5(C)CC[C@H](O)C(C)(C)[C@@H]5CC[C@]43C)[C@@H]12` [betulinic acid], the Normal melting temperature came to 315.30 ± 0.5 °C.
